Experimental data published in US9670227B2, “Thienopyrimidine derivatives, a process for their preparation and pharmaceutical compositions containing them” (LES LABORATOIRES SERVIER, priority 2013, dated 2017).

Key:
Mcl-1 protein = Mcl-1 protein (UniProtKB primary accession number: Q07820) (Homo sapiens, UniProt Q07820); assay: Inhibition of Mcl-1 by fluorescence polarisation, Method 1; format: binding; conditions: fluorescence polarisation test; Method 2 values are underlined in the patent (underlining not visible here); read-out: IC50 (M) Mcl-1 FP
In short: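 Fluorescence polarisation competition with an 11-point compound dilution series (final DMSO 5%). Mcl-1 protein at 5 nM and fluorescein-labelled ligand at 1 nM (final) in 10 mM HEPES, 150 mM NaCl, 0.05% Tween 20, pH 7.4.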

[1] = tested on: H929 multiple myeloma tumour line; assay: In vitro cytotoxicity, Microculture Tetrazolium Assay; format: cell-based; conditions: Homo sapiens, NCI-H929, 48 h, H929 cells, 48 hours exposure, MTT; read-out: IC50 (μM) MTT H929
Method: The cytotoxicity studies were carried out on the H929 multiple myeloma tumour line.
The cells are distributed onto microplates and exposed to the test compounds for 48 hours.

Mcl-1 protein, sequence (Q07820 whole entry): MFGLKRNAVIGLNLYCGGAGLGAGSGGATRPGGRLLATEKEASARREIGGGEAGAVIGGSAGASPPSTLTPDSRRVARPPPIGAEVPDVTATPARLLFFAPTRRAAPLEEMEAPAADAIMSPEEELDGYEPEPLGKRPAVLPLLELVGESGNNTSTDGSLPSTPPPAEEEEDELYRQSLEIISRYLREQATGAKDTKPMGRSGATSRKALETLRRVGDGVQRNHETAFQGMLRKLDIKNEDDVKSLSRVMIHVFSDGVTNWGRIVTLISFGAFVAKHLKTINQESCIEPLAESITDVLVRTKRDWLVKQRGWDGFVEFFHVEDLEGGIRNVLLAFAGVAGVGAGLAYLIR

IC50 (Mcl-1 protein)	SMILES	IC50 [1]
1.6e-08 M	COc1cc(COc2ccccc2CC(Oc2ncnc3sc(-c4ccc(F)cc4)c(-c4ccc(OCCN5CCN(C)CC5)c(Cl)c4C)c23)C(=O)O)nc(OC)n1 [Example 8, (2R)-2-{[(5Sa)-5-{3-chloro-2-methyl-4-[2-(4-methylpiperazin-1-yl)ethoxy]phenyl}-6-(4-fluorophenyl)thieno[2,3-d]pyrimidin-4-yl]oxy}-3-{2-[(2,6-dimethoxypyrimidin-4-yl)methoxy]phenyl}propanoic acid]	0.145 µM
9.3e-09 M	Cc1cc(COc2ccccc2CC(Oc2ncnc3sc(-c4ccc(F)cc4)c(-c4ccc(OCCN5CCN(C)CC5)c(Cl)c4C)c23)C(=O)O)no1 [Example 9, (2R)-2-{[(5Sa)-5-{3-chloro-2-methyl-4-[2-(4-methylpiperazin-1-yl)ethoxy]phenyl}-6-(4-fluorophenyl)thieno[2,3-d]pyrimidin-4-yl]oxy}-3-{2-[(5-methyl-1,2-oxazol-3-yl)methoxy]phenyl}propanoic acid]	0.363 µM
9.7e-09 M	Cc1c(-c2c(-c3ccc(F)cc3)sc3ncnc(OC(Cc4ccccc4OCc4ccc(F)cn4)C(=O)O)c23)ccc(OCCN2CCN(C)CC2)c1Cl [Example 10, (2R)-2-{[(5Sa)-5-{3-chloro-2-methyl-4-[2-(4-methylpiperazin-1-yl)ethoxy]phenyl}-6-(4-fluorophenyl)thieno[2,3-d]pyrimidin-4-yl]oxy}-3-{2-[(5-fluoropyridin-2-yl)methoxy]phenyl}propanoic acid]	0.275 µM
4.4e-08 M	Cc1c(-c2c(-c3ccc(F)cc3)sc3ncnc(OC(Cc4ccccc4OCc4cccc(-c5ccco5)n4)C(=O)O)c23)ccc(OCCN2CCN(C)CC2)c1Cl [Example 11, (2R)-2-{[(5Sa)-5-{3-chloro-2-methyl-4-[2-(4-methylpiperazin-1-yl)ethoxy]phenyl}-6-(4-fluorophenyl)thieno[2,3-d]pyrimidin-4-yl]oxy}-3-(2-{[6-(furan-2-yl)pyridin-2-yl]methoxy}phenyl)propanoic acid]	0.13 µM
1.6e-08 M	Cc1c(-c2c(-c3ccc(F)cc3)sc3ncnc(OC(Cc4ccccc4OCc4cccc(N5CCOCC5)n4)C(=O)O)c23)ccc(OCCN2CCN(C)CC2)c1Cl [Example 12, (2R)-2-{[(5Sa)-5-{3-chloro-2-methyl-4-[2-(4-methylpiperazin-1-yl)ethoxy]phenyl}-6-(4-fluorophenyl)thieno[2,3-d]pyrimidin-4-yl]oxy}-3-(2-{[6-(morpholin-4-yl)pyridin-2-yl]methoxy}phenyl)propanoic acid]	0.076 µM
2.2e-08 M	CCOc1cccc(COc2ccccc2CC(Oc2ncnc3sc(-c4ccc(F)cc4)c(-c4ccc(OCCN5CCN(C)CC5)c(Cl)c4C)c23)C(=O)O)n1 [Example 13, (2R)-2-{[(5Sa)-5-{3-chloro-2-methyl-4-[2-(4-methylpiperazin-1-yl)ethoxy]phenyl}-6-(4-fluorophenyl)thieno[2,3-d]pyrimidin-4-yl]oxy}-3-{2-[(6-ethoxypyridin-2-yl)methoxy]phenyl}propanoic acid]	0.146 µM
3.7e-08 M	Cc1c(-c2c(-c3ccc(F)cc3)sc3ncnc(OC(Cc4ccccc4OCc4ccn(CC5CCCCC5)n4)C(=O)O)c23)ccc(OCCN2CCN(C)CC2)c1Cl [Example 15, (2R)-2-{[(5Sa)-5-{3-chloro-2-methyl-4-[2-(4-methylpiperazin-1-yl)ethoxy]phenyl}-6-(4-fluorophenyl)thieno[2,3-d]pyrimidin-4-yl]oxy}-3-(2-{[1-(cyclohexylmethyl)-1H-pyrazol-3-yl]methoxy}phenyl)propanoic acid]	0.494 µM
5.9e-09 M	Cc1cc(COc2ccccc2CC(Oc2ncnc3sc(-c4ccc(F)cc4)c(-c4ccc(OCCN5CCN(C)CC5)c(Cl)c4C)c23)C(=O)O)ccn1 [Example 16, (2R)-2-{[(5Sa)-5-{3-chloro-2-methyl-4-[2-(4-methylpiperazin-1-yl)ethoxy]phenyl}-6-(4-fluorophenyl)thieno[2,3-d]pyrimidin-4-yl]oxy}-3-{2-[(2-methylpyridin-4-yl)methoxy]phenyl}propanoic acid]	0.095 µM
1.2e-08 M	Cc1c(-c2c(-c3ccc(F)cc3)sc3ncnc(OC(Cc4ccccc4OCc4ccnc(C(F)(F)F)c4)C(=O)O)c23)ccc(OCCN2CCN(C)CC2)c1Cl [Example 17, (2R)-2-{[(5Sa)-5-{3-chloro-2-methyl-4-[2-(4-methylpiperazin-1-yl)ethoxy]phenyl}-6-(4-fluorophenyl)thieno[2,3-d]pyrimidin-4-yl]oxy}-3-(2-{[2-(trifluoromethyl)pyridin-4-yl]methoxy}phenyl)propanoic acid]	0.062 µM
8.3e-09 M	Cc1c(-c2c(-c3ccc(F)cc3)sc3ncnc(OC(Cc4ccccc4OCc4ccnc(-c5cccs5)c4)C(=O)O)c23)ccc(OCCN2CCN(C)CC2)c1Cl [Example 18, (2R)-2-{[(5Sa)-5-{3-chloro-2-methyl-4-[2-(4-methylpiperazin-1-yl)ethoxy]phenyl}-6-(4-fluorophenyl)thieno[2,3-d]pyrimidin-4-yl]oxy}-3-(2-{[2-(thiophen-2-yl)pyridin-4-yl]methoxy}phenyl)propanoic acid]	0.076 µM
4.4e-09 M	Cc1c(-c2c(-c3ccc(F)cc3)sc3ncnc(OC(Cc4ccccc4OCc4ccnc(Cl)c4)C(=O)O)c23)ccc(OCCN2CCN(C)CC2)c1Cl [Example 19, (2R)-2-{[(5Sa)-5-{3-chloro-2-methyl-4-[2-(4-methylpiperazin-1-yl)ethoxy]phenyl}-6-(4-fluorophenyl)thieno[2,3-d]pyrimidin-4-yl]oxy}-3-{2-[(2-chloropyridin-4-yl)methoxy]phenyl}propanoic acid]	0.064 µM
6.4e-09 M	Cc1c(-c2c(-c3ccc(F)cc3)sc3ncnc(OC(Cc4ccccc4OCc4ccnc(N5CCOCC5)c4)C(=O)O)c23)ccc(OCCN2CCN(C)CC2)c1Cl [Example 20, (2R)-2-{[(5Sa)-5-{3-chloro-2-methyl-4-[2-(4-methylpiperazin-1-yl)ethoxy]phenyl}-6-(4-fluorophenyl)thieno[2,3-d]pyrimidin-4-yl]oxy}-3-(2-{[2-(morpholin-4-yl)pyridin-4-yl]methoxy}phenyl)propanoic acid]	0.08 µM
1.6e-08 M	COc1cc(COc2ccccc2CC(Oc2ncnc3sc(-c4ccc(F)cc4)c(-c4ccc(OCCN5CCN(C)CC5)c(Cl)c4C)c23)C(=O)O)ccn1 [Example 21, (2R)-2-{[(5Sa)-5-{3-chloro-2-methyl-4-[2-(4-methylpiperazin-1-yl)ethoxy]phenyl}-6-(4-fluorophenyl)thieno[2,3-d]pyrimidin-4-yl]oxy}-3-{2-[(2-methoxypyridin-4-yl)methoxy]phenyl}propanoic acid]	0.162 µM
8.3e-09 M	COCCOc1cc(COc2ccccc2CC(Oc2ncnc3sc(-c4ccc(F)cc4)c(-c4ccc(OCCN5CCN(C)CC5)c(Cl)c4C)c23)C(=O)O)ccn1 [Example 22, (2R)-2-{[(5Sa)-5-{3-chloro-2-methyl-4-[2-(4-methylpiperazin-1-yl)ethoxy]phenyl}-6-(4-fluorophenyl)thieno[2,3-d]pyrimidin-4-yl]oxy}-3-(2-{[2-(2-methoxyethoxy)pyridin-4-yl]methoxy}phenyl)propanoic acid]	0.092 µM
2.4e-08 M	Cc1c(-c2c(-c3ccc(F)cc3)sc3ncnc(OC(Cc4ccccc4OCc4ccnc(C(C)(C)C)n4)C(=O)O)c23)ccc(OCCN2CCN(C)CC2)c1Cl [Example 23, (2R)-3-{2-[(2-tert-butylpyrimidin-4-yl)methoxy]phenyl}-2-{[(5Sa)-5-{3-chloro-2-methyl-4-[2-(4-methylpiperazin-1-yl)ethoxy]phenyl}-6-(4-fluorophenyl)thieno[2,3-d]pyrimidin-4-yl]oxy}propanoic acid]	0.054 µM
8.1e-09 M	Cc1c(-c2c(-c3ccc(F)cc3)sc3ncnc(OC(Cc4ccccc4OCc4ccnc(C(C)C)n4)C(=O)O)c23)ccc(OCCN2CCN(C)CC2)c1Cl [Example 24, (2R)-2-{[(5Sa)-5-{3-chloro-2-methyl-4-[2-(4-methylpiperazin-1-yl)ethoxy]phenyl}-6-(4-fluorophenyl)thieno[2,3-d]pyrimidin-4-yl]oxy}-3-(2-{[2-(propan-2-yl)pyrimidin-4-yl]methoxy}phenyl)propanoic acid]	0.012 µM
5.6e-09 M	Cc1c(-c2c(-c3ccc(F)cc3)sc3ncnc(OC(Cc4ccccc4OCc4ccnc(C(F)(F)F)n4)C(=O)O)c23)ccc(OCCN2CCN(C)CC2)c1Cl [Example 25, (2R)-2-{[(5Sa)-5-{3-chloro-2-methyl-4-[2-(4-methylpiperazin-1-yl)ethoxy]phenyl}-6-(4-fluorophenyl)thieno[2,3-d]pyrimidin-4-yl]oxy}-3-(2-{[2-(trifluoromethyl)pyrimidin-4-yl]methoxy}phenyl)propanoic acid]	0.074 µM
1.1e-08 M	Cc1c(-c2c(-c3ccc(F)cc3)sc3ncnc(OC(Cc4ccccc4OCc4ccnc(C5CC5)n4)C(=O)O)c23)ccc(OCCN2CCN(C)CC2)c1Cl [Example 26, (2R)-2-{[(5Sa)-5-{3-chloro-2-methyl-4-[2-(4-methylpiperazin-1-yl)ethoxy]phenyl}-6-(4-fluorophenyl)thieno[2,3-d]pyrimidin-4-yl]oxy}-3-{2-[(2-cyclopropylpyrimidin-4-yl)methoxy]phenyl}propanoic acid]	0.028 µM
6.6e-09 M	Cc1c(-c2c(-c3ccc(F)cc3)sc3ncnc(OC(Cc4ccccc4OCc4ccnc(-c5ccc(Cl)cc5)n4)C(=O)O)c23)ccc(OCCN2CCN(C)CC2)c1Cl [Example 27, (2R)-2-{[(5Sa)-5-{3-chloro-2-methyl-4-[2-(4-methylpiperazin-1-yl)ethoxy]phenyl}-6-(4-fluorophenyl)thieno[2,3-d]pyrimidin-4-yl]oxy}-3-(2-{[2-(4-chlorophenyl)pyrimidin-4-yl]methoxy}phenyl)propanoic acid]	0.045 µM
